For the series, the system named is CCRIS mutagenicity, Ames/micronucleus/aberration tests. As to the kind of experiment: CCRIS mutagenicity studies.
Setting [1] is: Test System: AMES SALMONELLA TYPHIMURIUM, Strain/Indicator: TA98, Metabolic Activation: NONE, Method: STANDARD PLATE.
Setting [2] is: Test System: AMES SALMONELLA TYPHIMURIUM, Strain/Indicator: TA98, Metabolic Activation: RAT, LIVER, S-9, AROCLOR 1254, Method: STANDARD PLATE.
Where [3] appears, read: Test System: AMES SALMONELLA TYPHIMURIUM, Strain/Indicator: TA100, Metabolic Activation: NONE, Method: STANDARD PLATE.
Where [4] appears, read: Test System: AMES SALMONELLA TYPHIMURIUM, Strain/Indicator: TA100, Metabolic Activation: HAMSTER, LIVER, S-9, AROCLOR 1254 (10%), Method: PREINCUBATION
[5] abbreviates: Test System: AMES SALMONELLA TYPHIMURIUM, Strain/Indicator: TA100, Metabolic Activation: NONE, Method: PREINCUBATION
Where [6] appears, read: Test System: AMES SALMONELLA TYPHIMURIUM, Strain/Indicator: TA100, Metabolic Activation: RAT, LIVER, S-9, AROCLOR 1254 (10%), Method: PREINCUBATION
Where [7] appears, read: Test System: AMES SALMONELLA TYPHIMURIUM, Strain/Indicator: TA1535, Metabolic Activation: HAMSTER, LIVER, S-9, AROCLOR 1254 (10%), Method: PREINCUBATION
The mark [8] stands for this setting: Test System: AMES SALMONELLA TYPHIMURIUM, Strain/Indicator: TA1535, Metabolic Activation: NONE, Method: PREINCUBATION
Setting [9] is: Test System: AMES SALMONELLA TYPHIMURIUM, Strain/Indicator: TA1535, Metabolic Activation: RAT, LIVER, S-9, AROCLOR 1254 (10%), Method: PREINCUBATION
Setting [10] is: Test System: AMES SALMONELLA TYPHIMURIUM, Strain/Indicator: TA98, Metabolic Activation: NONE, Method: PREINCUBATION
The mark [11] stands for this setting: Test System: AMES SALMONELLA TYPHIMURIUM, Strain/Indicator: TA1537, Metabolic Activation: NONE, Method: PREINCUBATION

Calls of active or inactive are those of the source. How the calls were made is not given here.

In the case of `COC(=O)C1(C(N)=O)OC1(C)C(O)C(C)C` (configuration not stated), the mutagenic call is “inactive; negative” (Test System: AMES SALMONELLA TYPHIMURIUM, Strain/Indicator: TA98, Metabolic Activation: NONE, Method: DISK ASSAY); “inactive; negative” under setting [1]; “inactive; negative” (Test System: AMES SALMONELLA TYPHIMURIUM, Strain/Indicator: TA98, Metabolic Activation: RAT, LIVER, S-9, AROCLOR 1254, Method: DISK ASSAY); “active; positive” under setting [2]; “inactive; negative” under setting [3]; “inactive; negative” (Test System: AMES SALMONELLA TYPHIMURIUM, Strain/Indicator: TA100, Metabolic Activation: RAT, LIVER, S-9, AROCLOR 1254, Method: STANDARD PLATE).
Regarding `CC(C)OCC1CO1` (configuration not stated), the mutagenic call under setting [4] is “active; positive”; the mutagenic call under setting [5] is “active; positive”; the mutagenic call under setting [6] is “active; positive”; the mutagenic call under setting [7] is “active; positive”; the mutagenic call under setting [8] is “active; positive”; the mutagenic call under setting [9] is “active; positive”.
As to `CCCCC(CC)COC(=O)C(C#N)=C(c1ccccc1)c1ccccc1` (configuration not stated), the mutagenic call (Test System: AMES SALMONELLA TYPHIMURIUM, Strain/Indicator: TA98, Metabolic Activation: HAMSTER, LIVER, S-9, AROCLOR 1254 (10%), Method: PREINCUBATION) is “inactive; negative”; the mutagenic call under setting [10] was “inactive; negative”; the mutagenic call (Test System: AMES SALMONELLA TYPHIMURIUM, Strain/Indicator: TA98, Metabolic Activation: RAT, LIVER, S-9, AROCLOR 1254 (10%), Method: PREINCUBATION) was “inactive; negative”; the mutagenic call under setting [4] was “inactive; negative”; the mutagenic call under setting [5] is “inactive; negative”; the mutagenic call under setting [6] was “inactive; negative”. Further, the mutagenic call runs as follows: under setting [7], “inactive; negative”; under setting [8], “inactive; negative”; under setting [9], “inactive; negative”; (Test System: AMES SALMONELLA TYPHIMURIUM, Strain/Indicator: TA1537, Metabolic Activation: HAMSTER, LIVER, S-9, AROCLOR 1254 (10%), Method: PREINCUBATION) “inactive; negative”; under setting [11], “inactive; negative”; (Test System: AMES SALMONELLA TYPHIMURIUM, Strain/Indicator: TA1537, Metabolic Activation: RAT, LIVER, S-9, AROCLOR 1254 (10%), Method: PREINCUBATION) “inactive; negative”. Also, the mutagenic call is, setting by setting: (Test System: MOUSE LYMPHOMA, Strain/Indicator: L5178Y (TK+/TK-), Metabolic Activation: NONE, Method: SUSPENSION/PLATE) “inactive; negative”; (Test System: MOUSE LYMPHOMA, Strain/Indicator: L5178Y (TK+/TK-), Metabolic Activation: RAT, LIVER, S-9, AROCLOR 1254, Method: SUSPENSION/PLATE) “inactive; negative”.
For the molecule `COc1ccc2[nH]c3c(C)cc(N)c(C)c3c2c1`, the mutagenic call is “inactive; negative” under setting [1]; “active; positive” (Test System: AMES SALMONELLA TYPHIMURIUM, Strain/Indicator: TA98, Metabolic Activation: RAT LIVER S-9, AROCLOR 1254, Method: STANDARD PLATE); “inactive; negative” under setting [3]; “inactive; negative” (Test System: AMES SALMONELLA TYPHIMURIUM, Strain/Indicator: TA100, Metabolic Activation: RAT LIVER S-9, AROCLOR 1254, Method: STANDARD PLATE).
For `c1cc2ccc3cc4ccoc4c4ccc(c1)c2c34`, the mutagenic call is, setting by setting: under setting [1], “inactive; negative”; under setting [2], “active; positive”.
In the case of `CCCCCCCCC`, the mutagenic call reads like this: (Test System: AMES SALMONELLA TYPHIMURIUM, Strain/Indicator: TA97, Metabolic Activation: HAMSTER, LIVER, S-9, AROCLOR 1254 (10 OR 30%), Method: PREINCUBATION) “inactive; negative”; (Test System: AMES SALMONELLA TYPHIMURIUM, Strain/Indicator: TA97, Metabolic Activation: NONE, Method: PREINCUBATION) “inactive; negative”; (Test System: AMES SALMONELLA TYPHIMURIUM, Strain/Indicator: TA97, Metabolic Activation: RAT, LIVER, S-9, AROCLOR 1254 (10 OR 30%), Method: PREINCUBATION) “inactive; negative”; (Test System: AMES SALMONELLA TYPHIMURIUM, Strain/Indicator: TA98, Metabolic Activation: HAMSTER, LIVER, S-9, AROCLOR 1254 (10 OR 30%), Method: PREINCUBATION) “inactive; negative”; under setting [10], “inactive; negative”; (Test System: AMES SALMONELLA TYPHIMURIUM, Strain/Indicator: TA98, Metabolic Activation: RAT, LIVER, S-9, AROCLOR 1254 (10 OR 30%), Method: PREINCUBATION) “inactive; negative”. Further, the mutagenic call was “inactive; negative” (Test System: AMES SALMONELLA TYPHIMURIUM, Strain/Indicator: TA100, Metabolic Activation: HAMSTER, LIVER, S-9, AROCLOR 1254 (10 OR 30%), Method: PREINCUBATION); “inactive; negative” under setting [5]; “inactive; negative” (Test System: AMES SALMONELLA TYPHIMURIUM, Strain/Indicator: TA100, Metabolic Activation: RAT, LIVER, S-9, AROCLOR 1254 (10 OR 30%), Method: PREINCUBATION); “inactive; negative” (Test System: AMES SALMONELLA TYPHIMURIUM, Strain/Indicator: TA1535, Metabolic Activation: HAMSTER, LIVER, S-9, AROCLOR 1254 (10 OR 30%), Method: PREINCUBATION); “inactive; negative” under setting [8]; “inactive; negative” (Test System: AMES SALMONELLA TYPHIMURIUM, Strain/Indicator: TA1535, Metabolic Activation: RAT, LIVER, S-9, AROCLOR 1254 (10 OR 30%), Method: PREINCUBATION). Further, the mutagenic call is “inactive; negative” (Test System: AMES SALMONELLA TYPHIMURIUM, Strain/Indicator: TA1537, Metabolic Activation: HAMSTER, LIVER, S-9, AROCLOR 1254 (30%), Method: PREINCUBATION); “inactive; negative” under setting [11]; “inactive; negative” (Test System: AMES SALMONELLA TYPHIMURIUM, Strain/Indicator: TA1537, Metabolic Activation: RAT, LIVER, S-9, AROCLOR 1254 (30%), Method: PREINCUBATION).

The record behind these values is PubChem BioAssay AID1259407 (Chemical Carcinogenesis Research Information System (CCRIS), 2018).
